Source: patent publication US20070184490A1, “Neuronal nicotinic receptor ligands and their use” (priority 2006, published 2007)

Key:
[1] = molecular target: T1, α4β2 neuronal nicotinic receptor subtype (Rattus norvegicus, UniProt P09483+P12390); assay: [3H]-cytisine binding assay, rat brain membrane preparation; details: [3H]-cytisine binding site; read-out: binding affinity Ki
T1 construct: Membrane enriched fractions from rat brain minus cerebellum; tissue ABS Inc., Wilmington, DE; host or cells: rat brain minus cerebellum, membrane enriched fractions
T1 sequence (P09483 31-630): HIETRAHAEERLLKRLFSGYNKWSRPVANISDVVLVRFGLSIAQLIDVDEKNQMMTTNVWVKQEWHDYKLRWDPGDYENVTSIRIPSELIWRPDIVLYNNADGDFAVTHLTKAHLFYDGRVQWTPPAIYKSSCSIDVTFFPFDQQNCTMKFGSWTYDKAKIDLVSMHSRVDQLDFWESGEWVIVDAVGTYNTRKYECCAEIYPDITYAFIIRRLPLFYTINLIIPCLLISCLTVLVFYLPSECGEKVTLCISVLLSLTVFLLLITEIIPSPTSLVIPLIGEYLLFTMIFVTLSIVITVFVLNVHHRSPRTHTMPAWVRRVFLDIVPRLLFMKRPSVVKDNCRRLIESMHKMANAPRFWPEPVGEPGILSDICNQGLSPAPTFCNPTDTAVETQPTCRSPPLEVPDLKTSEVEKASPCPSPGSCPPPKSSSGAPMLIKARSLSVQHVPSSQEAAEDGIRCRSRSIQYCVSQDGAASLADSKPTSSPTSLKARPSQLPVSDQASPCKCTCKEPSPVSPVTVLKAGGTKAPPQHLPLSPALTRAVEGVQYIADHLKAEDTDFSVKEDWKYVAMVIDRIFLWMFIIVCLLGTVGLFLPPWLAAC
T1 sequence (P12390 25-500): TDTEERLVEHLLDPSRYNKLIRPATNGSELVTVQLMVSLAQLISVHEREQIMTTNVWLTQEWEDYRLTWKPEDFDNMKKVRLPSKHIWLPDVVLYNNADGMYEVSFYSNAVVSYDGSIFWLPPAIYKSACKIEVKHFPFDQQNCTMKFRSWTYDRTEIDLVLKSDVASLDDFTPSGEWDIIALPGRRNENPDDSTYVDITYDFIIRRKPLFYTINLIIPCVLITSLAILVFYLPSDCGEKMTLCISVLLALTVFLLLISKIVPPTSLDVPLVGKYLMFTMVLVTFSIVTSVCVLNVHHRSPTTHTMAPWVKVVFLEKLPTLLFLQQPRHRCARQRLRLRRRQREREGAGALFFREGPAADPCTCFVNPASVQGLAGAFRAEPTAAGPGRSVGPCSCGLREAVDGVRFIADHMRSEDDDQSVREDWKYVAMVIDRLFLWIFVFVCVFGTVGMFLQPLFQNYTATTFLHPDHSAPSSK
Procedure: The method can be accomplished under any suitable binding conditions. […] IC50 and Ki values can be determined from data obtained in the [^3H]-cytisine binding assay.
Binding conditions were modified from the procedures described in Pabreza L A, Dhawan, S, Kellar K J, [^3H]-Cytisine Binding to Nicotinic Cholinergic Receptors in Brain, Mol. Pharm. 39: 9-12, 1991. Membrane enriched fractions from rat brain minus cerebellum (ABS Inc., Wilmington, DE) were slowly thawed at 4° C., washed and resuspended in 30 volumes of BSS-Tris buffer (120 mM NaCl/5 mM KCI/2 mM CaCl2/2 mM MgCl2/50 mM Tris-Cl, pH 7.4, 4° C.). Samples containing 100-200 μg of protein and 0.75 nM [^3H]-cytisine (30 Ci/mmol; Perkin Elmer/NEN Life Science Products, Boston, MA) were incubated in a final volume of 500 μL for 75 minutes at 4° C. Seven log-dilution concentrations of each compound were tested in duplicate. Non-specific binding was determined in the presence of 10 μM (−)-nicotine. Bound radioactivity was isolated by vacuum filtration onto prewetted glass fiber filter plates (Millipore, Bedford, MA) using a 96-well filtration apparatus (Packard Instruments, Meriden, CT) and were then rapidly rinsed with 2 mL of ice-cold BSS buffer (120 mM NaCl/5 mM KCl/2 mM CaCl2/2 mM MgCl2). Packard MicroScint-20® scintillation cocktail (40 μL) was added to each well and radioactivity determined using a Packard TopCount® instrument. The IC50 values were determined by nonlinear regression in Microsoft Excel® software. Ki values were calculated from the IC50s using the Cheng-Prusoff equation, where Ki=IC50/1+[Ligand]/KD].

adults with ADHD = details: transdermal, 32 adults; cited from earlier work

Row | Compound | Ki [1] [nM] | efficacy in treating ADHD (adults with ADHD)
1 | c1ccc2ncc(N3CC4CNCC4C3)cc2c1 (stereo not shown) | 1.5 | –
2 | Clc1ccc(-c2cc(OC[C@@H]3CCCN3)cnc2Cl)cc1 | 0.04 | –
3 | c1cncc(N2CC[C@@H]3CNC[C@@H]32)c1 [(R,R)-1-(pyridin-3-yl)-octahydro-pyrrolo[3,4-b]pyrrole] | 8.8 | –
4 | Cc1cc([C@@H]2CCCN2C)on1 [ABT-418] | – | effective in treating ADHD
